For 24 molecules, Ki results are on record in patent publication US8859546B2, “Picolinamide inhibitors of kinases” (AbbVie Inc., priority 2011, dated 2014).

The target in this experiment is T1, ALK (Homo sapiens, UniProt Q9UM73).
T1 construct: purchased Millipore
Nature of the experiment: ALK kinase assay (HTRF), apparent Ki. It is filed as biochemical. The settings on record: apparent Ki from IC50 by Cheng-Prusoff; ALK (Millipore), 50 μM ATP; read-out: HTRF_ALK Human-Ki. As for the experimental part: The following procedure is used to determine ALK Activity.
ALK kinase assays were conducted with the indicated final concentrations unless otherwise specified. In 384 well black plates (Axygen), 8 μl of compound (2% DMSO) was incubated with 8 μl Lck-peptide substrate (0.5 μM, biotin-Ahx-GAEEEIYAAFFA-COOH) and 8 μl of a mixture of ALK (3 nM, Millipore) and ATP (50 μM) in reaction buffer (50 mM Hepes, pH 7.4; 10 mM MgCl2; 2 mM MnCl2; 0.1 mM sodium orthovanadate; 0.01% BSA and 1 mM DTT (added fresh before assay) for 1 h at room temperature. Reactions were then quenched by the addition of 30 μl quench solution (streptavidin-allophycocyanin and Europium-cryptate PT66 monoclonal antibody in 40 mM Hepes, pH 7.4; 480 mM KF; 66 mM EDTA; 0.01% Tween-20; and 0.1% BSA) at room temperature. Plates were read 1 h after quenching on an Envision Multilaber Reader and IC50 values were calculated using a sigmoidal fit of the concentration/inhibition response curves. These values were converted to apparent Ki values using the Cheng-Prusoff relationship.
Alternatively, 4 nM ALK (Millipore) and 50 μM ATP were pre-incubated for 30 min at room temperate in 384 well plates (Corning 3676) in 2.5× reaction buffer (125 nM SEB from Cisbio Bioassays, 12.5 mM MgCl2, 5 mM MnCl2, and 2.5 mM DTT). Reactions were initiated by the addition of 4 μl ALK-ATP mixture to 2 μl compounds (2% DMSO) and 4 μl TK-substrate biotin (Cisbio Bioassays). After incubation for 1 h at room temperature, reactions were quenched in 10 μl stop buffer (Cisbio detection buffer containing Streptavididn-XL665 and Eu-Cryptate PT66 monoclonal antibody). Plates were read 1 h after quenching on an Envision Multilaber Reader and IC50 values were calculated using a sigmoidal fit of the concentration/inhibition response curves. These values were converted to apparent Ki values using the Cheng-Prusoff relationship. Results are shown in Table 1 A correlates to an Ki=<100 nM, B correlates to an Ki between 100 nM and 1 μM, C correlates to an Ki=>1 μM.
For orientation: In TR-FRET formats the signal depends on donor and acceptor labels being close together.

T1 sequence (Q9UM73 19-1620): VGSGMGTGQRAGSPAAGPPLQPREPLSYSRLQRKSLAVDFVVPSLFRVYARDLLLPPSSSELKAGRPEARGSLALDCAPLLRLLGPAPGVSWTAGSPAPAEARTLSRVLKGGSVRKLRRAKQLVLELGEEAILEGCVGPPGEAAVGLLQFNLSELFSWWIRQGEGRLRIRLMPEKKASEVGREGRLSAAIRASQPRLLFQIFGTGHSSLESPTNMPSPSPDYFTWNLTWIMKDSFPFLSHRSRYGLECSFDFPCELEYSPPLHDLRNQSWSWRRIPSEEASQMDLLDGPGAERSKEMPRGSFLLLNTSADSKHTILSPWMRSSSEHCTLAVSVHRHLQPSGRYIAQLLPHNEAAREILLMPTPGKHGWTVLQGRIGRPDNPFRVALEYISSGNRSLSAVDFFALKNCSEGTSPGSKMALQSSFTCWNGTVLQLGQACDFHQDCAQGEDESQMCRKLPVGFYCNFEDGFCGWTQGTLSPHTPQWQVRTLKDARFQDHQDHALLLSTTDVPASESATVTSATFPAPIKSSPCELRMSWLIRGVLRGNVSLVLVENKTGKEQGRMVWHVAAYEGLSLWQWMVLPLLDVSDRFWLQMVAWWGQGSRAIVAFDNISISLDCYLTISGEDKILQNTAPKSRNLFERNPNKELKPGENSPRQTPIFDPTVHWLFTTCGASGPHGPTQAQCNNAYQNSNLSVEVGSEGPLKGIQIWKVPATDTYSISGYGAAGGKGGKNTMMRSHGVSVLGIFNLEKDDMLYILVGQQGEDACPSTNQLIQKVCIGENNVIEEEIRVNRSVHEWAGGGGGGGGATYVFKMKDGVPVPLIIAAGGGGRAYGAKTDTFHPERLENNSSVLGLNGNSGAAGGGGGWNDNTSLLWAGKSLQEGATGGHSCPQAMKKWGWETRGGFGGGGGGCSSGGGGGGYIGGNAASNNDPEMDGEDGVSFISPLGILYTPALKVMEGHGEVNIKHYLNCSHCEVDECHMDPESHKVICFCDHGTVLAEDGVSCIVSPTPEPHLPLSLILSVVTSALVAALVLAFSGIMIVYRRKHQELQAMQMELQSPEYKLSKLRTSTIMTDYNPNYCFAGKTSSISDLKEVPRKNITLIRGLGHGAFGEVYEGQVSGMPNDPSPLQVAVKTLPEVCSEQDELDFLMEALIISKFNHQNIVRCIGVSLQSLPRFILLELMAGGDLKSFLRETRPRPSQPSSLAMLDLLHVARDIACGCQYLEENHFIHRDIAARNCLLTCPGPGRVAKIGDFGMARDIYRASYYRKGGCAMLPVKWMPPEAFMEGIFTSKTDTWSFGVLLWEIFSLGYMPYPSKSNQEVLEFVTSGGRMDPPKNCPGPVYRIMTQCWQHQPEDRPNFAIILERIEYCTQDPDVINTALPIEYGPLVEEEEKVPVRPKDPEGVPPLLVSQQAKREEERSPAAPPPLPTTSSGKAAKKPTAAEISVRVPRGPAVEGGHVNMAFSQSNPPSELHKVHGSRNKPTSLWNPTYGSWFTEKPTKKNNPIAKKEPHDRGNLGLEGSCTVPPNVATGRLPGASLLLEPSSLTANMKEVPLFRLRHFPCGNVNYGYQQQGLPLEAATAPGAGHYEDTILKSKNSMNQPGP

As for `COc1cc(N2CCN(C)CC2)ccc1Nc1cc(C(C)c2cccc(F)c2)cnc1C(N)=O` (stereo not drawn) [Example 37, 5-[1-(3-fluorophenyl)ethyl]-3-{[2-methoxy-4-(4-methylpiperazin-1-yl)phenyl]amino}pyridine-2-carboxamide], the Ki was in the range of 100 to 1000 nM.

With `CN1CCN(c2ccc(Nc3cc(-c4cn[nH]c4)cnc3C(N)=O)cc2)CC1` [Example 63, 3-{[4-(4-methylpiperazin-1-yl)phenyl]amino}-5-(1H-pyrazol-4-yl)pyridine-2-carboxamide], the Ki was over 1000 nM.

For `CN1CCN(c2ccc(Nc3cc(-c4cccc(F)c4)cnc3C(N)=O)cc2)CC1` [Example 51, 5-(3-fluorophenyl)-3-{[4-(4-methylpiperazin-1-yl)phenyl]amino}pyridine-2-carboxamide], the Ki was over 1000 nM.

Consider `CN1CCN(c2ccc(Nc3cc(-c4cccc(NS(C)(=O)=O)c4)cnc3C(N)=O)cc2)CC1` [Example 54, 3-{[4-(4-methylpiperazin-1-yl)phenyl]amino}-5-{3-[(methylsulfonyl)amino]phenyl}pyridine-2-carboxamide], for which the Ki was under 100 nM.

For the molecule `Cc1ccccc1Cc1cnc(C(N)=O)c(Nc2ccc(N3CCN(C)CC3)cc2)c1` [Example 27, 5-(2-methylbenzyl)-3-{[4-(4-methylpiperazin-1-yl)phenyl]amino}pyridine-2-carboxamide], the Ki is over 1000 nM.

Turning to `CN1CCN(c2ccc(Nc3cc(Cc4ccccc4)cnc3C(N)=O)cc2)CC1` [Example 3, 5-benzyl-3-{[4-(4-methylpiperazin-1-yl)phenyl]amino}pyridine-2-carboxamide], the Ki fell in the range of 100 to 1000 nM.

Turning to `CN1CCN(c2ccc(Nc3cc(-c4cccc(C(=O)N(C)C)c4)cnc3C(N)=O)cc2)CC1` [Example 62, 5-[3-(dimethylcarbamoyl)phenyl]-3-{[4-(4-methylpiperazin-1-yl)phenyl]amino}pyridine-2-carboxamide], the Ki lay within 100 to 1000 nM.

Take `CN1CCN(c2ccc(Nc3cc(Nc4ccccc4)cnc3C(N)=O)cc2)CC1` [Example 70, 5-anilino-3-{[4-(4-methylpiperazin-1-yl)phenyl]amino}pyridine-2-carboxamide]: the Ki is 100 to 1000 nM.

Consider `CN1CCN(c2ccc(Nc3cc(Cc4cc(F)ccc4Cl)cnc3C(N)=O)cc2Cl)CC1` [Example 40, 5-(2-chloro-5-fluorobenzyl)-3-{[3-chloro-4-(4-methylpiperazin-1-yl)phenyl]amino}pyridine-2-carboxamide], for which the Ki fell in the range of 100 to 1000 nM.

Consider `CN1CCN(c2ccc(Nc3cc(C(C)(C)c4cccc(F)c4)cnc3C(N)=O)cc2)CC1` [Example 35, 5-[2-(3-fluorophenyl)propan-2-yl]-3-{[4-(4-methylpiperazin-1-yl)phenyl]amino}pyridine-2-carboxamide], for which the Ki was 100 to 1000 nM.

Regarding `CN1CCN(c2ccc(Nc3cc(Cc4ccc5ccccc5c4)cnc3C(N)=O)cc2)CC1` [Example 17, 3-{[4-(4-methylpiperazin-1-yl)phenyl]amino}-5-(2-naphthylmethyl)pyridine-2-carboxamide], the Ki is over 1000 nM.

With `CN1CCN(c2ccc(Nc3cc(Cc4ccccc4-c4ccccc4)cnc3C(N)=O)cc2)CC1` [Example 32, 5-(biphenyl-2-ylmethyl)-3-{[4-(4-methylpiperazin-1-yl)phenyl]amino}pyridine-2-carboxamide], the Ki was 100 to 1000 nM.

On to `COc1cc(N2CCNCC2)ccc1Nc1cc(Cc2c(F)cccc2Cl)cnc1C(N)=O` [Example 42, 5-(2-chloro-6-fluorobenzyl)-3-{[2-methoxy-4-(piperazin-1-yl)phenyl]amino}pyridine-2-carboxamide], for which the Ki is under 100 nM.

`CN1CCN(c2ccc(Nc3cc(Cc4cccc(Cl)c4)cnc3C(N)=O)cc2)CC1` [Example 24, 5-(3-chlorobenzyl)-3-{[4-(4-methylpiperazin-1-yl)phenyl]amino}pyridine-2-carboxamide]: the Ki is 100 to 1000 nM.

Take `CCN(CC)CCN1CCN(c2ccc(Nc3cc(Cc4c(F)cccc4Cl)cnc3C(N)=O)c(OC)c2)CC1` [Example 44, 5-(2-chloro-6-fluorobenzyl)-3-[(4-{4-[2-(diethylamino)ethyl]piperazin-1-yl}-2-methoxyphenyl)amino]pyridine-2-carboxamide]: the Ki was under 100 nM.

With `CN1CCN(c2ccc(Nc3cc(-c4cccc(NS(=O)(=O)c5cccs5)c4)cnc3C(N)=O)cc2)CC1` [Example 68, 3-{[4-(4-methylpiperazin-1-yl)phenyl]amino}-5-{3-[(2-thienylsulfonyl)amino]phenyl}pyridine-2-carboxamide], the Ki is under 100 nM.

In the case of `NC(=O)c1ncc(Cc2c(Cl)cccc2Cl)cc1Nc1ccc(N2CCNCC2)cc1` [Example 39, 5-(2,6-dichlorobenzyl)-3-{[4-(piperazin-1-yl)phenyl]amino}pyridine-2-carboxamide], the Ki is under 100 nM.

On to `CN1CCN(c2ccc(Nc3cc(Cc4cccc(C(F)(F)F)c4)cnc3C(N)=O)cc2)CC1` [Example 33, 3-{[4-(4-methylpiperazin-1-yl)phenyl]amino}-5-[3-(trifluoromethyl)benzyl]pyridine-2-carboxamide], for which the Ki was 100 to 1000 nM.

As for `CN1CCN(c2ccc(Nc3cc(-c4cccc(NS(=O)(=O)c5ccn(C)n5)c4)cnc3C(N)=O)cc2)CC1` [Example 69, 3-{[4-(4-methylpiperazin-1-yl)phenyl]amino}-5-(3-{[(1-methyl-1H-pyrazol-3-yl)sulfonyl]amino}phenyl)pyridine-2-carboxamide], the Ki was 100 to 1000 nM.

On to `Cc1oncc1S(=O)(=O)Nc1cccc(-c2cnc(C(N)=O)c(Nc3ccc(N4CCN(C)CC4)cc3)c2)c1` [Example 67, 5-(3-{[(5-methyl-1,2-oxazol-4-yl)sulfonyl]amino}phenyl)-3-{[4-(4-methylpiperazin-1-yl)phenyl]amino}pyridine-2-carboxamide], for which the Ki was 100 to 1000 nM.

Consider `COc1cc(N2CCN(C)CC2)ccc1Nc1cc(-c2cccc(NS(C)(=O)=O)c2)cnc1C(N)=O` [Example 57, 3-{[2-methoxy-4-(4-methylpiperazin-1-yl)phenyl]amino}-5-{3-[(methylsulfonyl)amino]phenyl}pyridine-2-carboxamide], for which the Ki was in the range of 100 to 1000 nM.

In the case of `CN1CCN(c2ccc(Nc3cc(-c4cccc(NS(=O)(=O)CC(F)(F)F)c4)cnc3C(N)=O)cc2)CC1` [Example 65, 3-{[4-(4-methylpiperazin-1-yl)phenyl]amino}-5-(3-{[(2,2,2-trifluoroethyl)sulfonyl]amino}phenyl)pyridine-2-carboxamide], the Ki lay in the range of 100 to 1000 nM.

Turning to `CN1CCN(c2ccc(Nc3cc(-c4cccc(NS(=O)(=O)C5CC5)c4)cnc3C(N)=O)cc2)CC1` [Example 66, 5-{3-[(cyclopropylsulfonyl)amino]phenyl}-3-{[4-(4-methylpiperazin-1-yl)phenyl]amino}pyridine-2-carboxamide], the Ki fell in the range of 100 to 1000 nM.

With `CC(c1cccc(F)c1)c1cnc(C(N)=O)c(Nc2ccc(N3CCN(C)CC3)cc2)c1` (stereo not drawn) [Example 34, 5-[1-(3-fluorophenyl)ethyl]-3-{[4-(4-methylpiperazin-1-yl)phenyl]amino}pyridine-2-carboxamide], the Ki lay in the range of 100 to 1000 nM.
